Test results reported in ChEMBL document CHEMBL1201862, “PubChem BioAssay data set” (2004).
Calls of active or inactive are those of the source. Rule as the data show it, for most assays here: actives have a measured EC50 and inactives only a lower limit.

Experiments:
[1] = target: T1, Protein RecA (Mycobacterium tuberculosis, UniProt P9WHJ3); assay: Fluorescence Cell-Free Homogeneous Dose Retest to Identify Inhibitors of RecA-Intein Splicing Activity. [Related pubchem assays (depositor defined):AID2097, AID2223, AID489010, AID492950]; type: functional
T1 sequence (P9WHJ3 whole entry): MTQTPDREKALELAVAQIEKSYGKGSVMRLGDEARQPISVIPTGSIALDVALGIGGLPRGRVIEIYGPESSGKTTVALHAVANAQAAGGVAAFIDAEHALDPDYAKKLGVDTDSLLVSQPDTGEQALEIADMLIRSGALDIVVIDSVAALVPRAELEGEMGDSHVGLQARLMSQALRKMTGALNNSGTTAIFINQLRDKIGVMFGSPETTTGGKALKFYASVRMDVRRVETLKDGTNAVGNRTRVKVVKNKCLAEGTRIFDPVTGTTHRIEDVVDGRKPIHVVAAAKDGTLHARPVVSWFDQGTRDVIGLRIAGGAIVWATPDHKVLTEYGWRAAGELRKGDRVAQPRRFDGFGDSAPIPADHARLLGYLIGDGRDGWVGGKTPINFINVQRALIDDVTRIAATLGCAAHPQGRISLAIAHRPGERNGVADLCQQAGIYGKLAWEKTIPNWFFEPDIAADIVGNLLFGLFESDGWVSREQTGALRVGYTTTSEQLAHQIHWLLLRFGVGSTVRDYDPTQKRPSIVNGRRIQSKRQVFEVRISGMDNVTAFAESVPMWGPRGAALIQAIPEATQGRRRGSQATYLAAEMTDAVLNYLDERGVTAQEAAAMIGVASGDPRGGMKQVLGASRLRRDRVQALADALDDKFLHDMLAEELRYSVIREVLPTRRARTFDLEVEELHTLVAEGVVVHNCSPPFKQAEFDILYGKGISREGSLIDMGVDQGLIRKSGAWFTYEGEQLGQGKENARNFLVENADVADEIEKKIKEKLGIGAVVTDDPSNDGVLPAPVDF

[2] = target: T2, Replicative DNA helicase DnaB (Mycobacterium tuberculosis, UniProt P9WMR3); assay: DnaB intein splicing inhibitors, dose response, biochemical, cell-free fluorescence (AID 449749); type: functional
T2 sequence (P9WMR3 whole entry): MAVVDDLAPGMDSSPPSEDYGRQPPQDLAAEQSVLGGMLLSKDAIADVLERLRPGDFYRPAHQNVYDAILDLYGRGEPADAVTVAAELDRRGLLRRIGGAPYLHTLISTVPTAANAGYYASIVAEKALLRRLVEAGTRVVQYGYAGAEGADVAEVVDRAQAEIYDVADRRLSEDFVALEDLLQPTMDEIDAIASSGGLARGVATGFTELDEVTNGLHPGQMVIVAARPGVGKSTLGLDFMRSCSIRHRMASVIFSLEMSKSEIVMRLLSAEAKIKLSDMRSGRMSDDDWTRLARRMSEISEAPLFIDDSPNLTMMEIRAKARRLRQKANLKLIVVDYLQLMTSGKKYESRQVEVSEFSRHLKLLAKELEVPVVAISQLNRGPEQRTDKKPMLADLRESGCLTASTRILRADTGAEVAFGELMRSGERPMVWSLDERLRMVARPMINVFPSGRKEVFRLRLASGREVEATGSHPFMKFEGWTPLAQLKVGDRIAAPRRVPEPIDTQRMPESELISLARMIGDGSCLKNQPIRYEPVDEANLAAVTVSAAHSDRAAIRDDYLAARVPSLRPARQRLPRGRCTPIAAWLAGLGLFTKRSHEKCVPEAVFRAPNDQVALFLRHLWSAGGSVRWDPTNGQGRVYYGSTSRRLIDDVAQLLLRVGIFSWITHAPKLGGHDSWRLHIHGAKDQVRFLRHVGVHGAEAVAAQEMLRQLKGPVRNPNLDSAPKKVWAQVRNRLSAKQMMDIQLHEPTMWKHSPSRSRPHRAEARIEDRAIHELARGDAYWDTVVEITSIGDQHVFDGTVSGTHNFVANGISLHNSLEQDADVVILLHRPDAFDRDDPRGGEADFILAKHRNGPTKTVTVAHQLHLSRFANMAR

[3] = viability of uninfected HEp-2 cells – cell-based, HTS, cytotoxicity control for RSV inhibitor project, dose response (AID 2410); type: functional; details: human respiratory syncytial virus
[4] = Luminescence Cell-Based Dose Response HTS to Identify Activators of Luciferase Translation or Activity in H4 […] Cells. [Related pubchem assays: 1829 (Project Summary), 1814 (Primary HTS)]; type: functional
[5] = test system: H4; assay: Luminescence Cell-Based Dose Response HTS to Identify Activators of 5'UTR Stem-Loop Driven Prion Protein mRNA Translation in H4 Neuroglioblastoma Cells. [Related pubchem assays: 1829 (Project Summary), 1814 (Primary HTS)]; type: functional; details: Homo sapiens
[6] = Luminescence Cell-Based Dose Confirmation HTS to Identify Inhibitors of Platelet Dense Granule Release. [Related pubchem assays: 1663 (Primary HTS), 1678 (Summary of Project)]; type: functional
[7] = target: Luciferin 4-monooxygenase (Photinus pyralis, UniProt P08659); assay: inhibition of purified Photinus pyralis luciferase – biochemical, luminescence, dose response (AID 1891)
Sequence of Luciferin 4-monooxygenase (P08659 whole entry): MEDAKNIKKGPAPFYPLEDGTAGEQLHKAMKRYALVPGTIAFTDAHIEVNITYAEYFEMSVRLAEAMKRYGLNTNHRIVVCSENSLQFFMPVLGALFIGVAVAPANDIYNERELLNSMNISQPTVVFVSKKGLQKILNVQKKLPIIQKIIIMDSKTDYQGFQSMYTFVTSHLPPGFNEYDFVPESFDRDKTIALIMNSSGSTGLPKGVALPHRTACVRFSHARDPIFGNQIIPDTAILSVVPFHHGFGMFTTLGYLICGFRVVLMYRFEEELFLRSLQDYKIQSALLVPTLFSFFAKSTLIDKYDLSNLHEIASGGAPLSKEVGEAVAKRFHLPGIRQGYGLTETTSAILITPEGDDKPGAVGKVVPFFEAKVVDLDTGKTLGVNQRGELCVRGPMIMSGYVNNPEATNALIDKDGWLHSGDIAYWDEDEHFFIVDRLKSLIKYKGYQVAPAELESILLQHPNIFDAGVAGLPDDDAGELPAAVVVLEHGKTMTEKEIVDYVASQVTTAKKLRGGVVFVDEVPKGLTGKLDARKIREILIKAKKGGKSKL

[8] = test system: BJ; assay: BJ-TERT-LT-ST fibroblast viability loss – cell-based, RAS-independent, luminescence, dose response (AID 1935); type: functional; details: Homo sapiens;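 also: BJ fibroblasts immortalized with TERT plus LT and ST oncogenes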
[9] = test system: BJ; assay: BJ-TERT fibroblast viability loss – cell-based, RAS-independent, luminescence, dose response (AID 1933); type: functional; details: Homo sapiens
[10] = DRD fibroblast viability loss – cell-based, non-viral oncogenic, luminescence, dose response (AID 1934); type: functional; details: Homo sapiens
[11] = test system: BJ; assay: cells; type: functional, cell-based; details: Homo sapiens
[12] = NIH3T3 cell viability loss – ATP luminescence, mouse fibroblasts, counter-screen, dose response (AID 2010); type: functional, cell-based;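 also: cells exposed to compound for about 90 hours before reading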
[13] = Trypanosoma cruzi growth suppression in host cells – NIH3T3 host cells, beta-gal luminescence, confirmation (AID 2044); type: functional, cell-based;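 also: intracellular parasites grown in NIH/3T3 mouse fibroblasts as host cells; luminescent beta-galactosidase reporter signal from transgenic T. cruzi replicating inside host cells; inhibitors lower the luminescence signal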
[14] = target: T3, Calpain-2 catalytic subunit (Sus scrofa, UniProt P43367); assay: m-calpain protease blockers, concentration series – biochemical, fluorogenic peptide substrate, dose response (AID 1420); type: functional
T3 sequence (P43367 whole entry): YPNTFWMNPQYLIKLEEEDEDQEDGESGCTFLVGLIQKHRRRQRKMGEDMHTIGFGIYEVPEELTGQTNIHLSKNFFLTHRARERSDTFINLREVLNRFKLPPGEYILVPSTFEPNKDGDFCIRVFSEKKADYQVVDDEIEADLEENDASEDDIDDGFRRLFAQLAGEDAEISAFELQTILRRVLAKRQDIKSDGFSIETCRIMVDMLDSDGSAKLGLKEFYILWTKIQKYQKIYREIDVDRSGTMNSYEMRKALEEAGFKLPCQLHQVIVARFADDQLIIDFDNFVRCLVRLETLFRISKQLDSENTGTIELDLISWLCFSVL

[15] = Luminescence Cell-Based Dose Response HTS to Identify Inhibitors of 5'UTR Stem-Loop Driven Prion Protein mRNA Translation in H4 Neuroglioblastoma Cells. [Related pubchem assays: 1827 (Project Summary), 1813 (Primary HTS)]; type: functional
[16] = viability of PTEN-deleted HCT116 cells – cell-based, HCT116 PTEN knockout, dose response (AID 1047); type: functional;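 also: HCT116 colon tumor cells with PTEN knocked out; cells exposed to compound for 60 hours before readout; potency for loss of cell viability measured by luminescence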
[17] = viability of HCT116 lacking mutant beta-catenin – cell-based, human colon tumor, dose response (AID 1045); type: functional;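 also: HCT116 colon tumor cells with beta catenin knocked out; cells exposed to compound for 60 hours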
[18] = luciferase reporter signal suppression in cells – H4 neuroglioma cells, luminescence, dose response (AID 1990); type: functional, cell-based
[19] = alpha-synuclein stem-loop luciferase translation blockers – H4 neuroglioma cells, luminescence, confirmation (AID 1988); type: functional, cell-based
[20] = target: Fatty acid synthase (Homo sapiens, UniProt P49327); assay: inhibition of human FAS-TE enzyme activity – biochemical, kinetic fluorescence intensity, dose response (AID 624326); type: functional;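 also: rate of fluorescence rise from hydrolysis of a fluorogenic O-methyl fluorescein ester substrate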
Sequence of Fatty acid synthase (P49327 whole entry): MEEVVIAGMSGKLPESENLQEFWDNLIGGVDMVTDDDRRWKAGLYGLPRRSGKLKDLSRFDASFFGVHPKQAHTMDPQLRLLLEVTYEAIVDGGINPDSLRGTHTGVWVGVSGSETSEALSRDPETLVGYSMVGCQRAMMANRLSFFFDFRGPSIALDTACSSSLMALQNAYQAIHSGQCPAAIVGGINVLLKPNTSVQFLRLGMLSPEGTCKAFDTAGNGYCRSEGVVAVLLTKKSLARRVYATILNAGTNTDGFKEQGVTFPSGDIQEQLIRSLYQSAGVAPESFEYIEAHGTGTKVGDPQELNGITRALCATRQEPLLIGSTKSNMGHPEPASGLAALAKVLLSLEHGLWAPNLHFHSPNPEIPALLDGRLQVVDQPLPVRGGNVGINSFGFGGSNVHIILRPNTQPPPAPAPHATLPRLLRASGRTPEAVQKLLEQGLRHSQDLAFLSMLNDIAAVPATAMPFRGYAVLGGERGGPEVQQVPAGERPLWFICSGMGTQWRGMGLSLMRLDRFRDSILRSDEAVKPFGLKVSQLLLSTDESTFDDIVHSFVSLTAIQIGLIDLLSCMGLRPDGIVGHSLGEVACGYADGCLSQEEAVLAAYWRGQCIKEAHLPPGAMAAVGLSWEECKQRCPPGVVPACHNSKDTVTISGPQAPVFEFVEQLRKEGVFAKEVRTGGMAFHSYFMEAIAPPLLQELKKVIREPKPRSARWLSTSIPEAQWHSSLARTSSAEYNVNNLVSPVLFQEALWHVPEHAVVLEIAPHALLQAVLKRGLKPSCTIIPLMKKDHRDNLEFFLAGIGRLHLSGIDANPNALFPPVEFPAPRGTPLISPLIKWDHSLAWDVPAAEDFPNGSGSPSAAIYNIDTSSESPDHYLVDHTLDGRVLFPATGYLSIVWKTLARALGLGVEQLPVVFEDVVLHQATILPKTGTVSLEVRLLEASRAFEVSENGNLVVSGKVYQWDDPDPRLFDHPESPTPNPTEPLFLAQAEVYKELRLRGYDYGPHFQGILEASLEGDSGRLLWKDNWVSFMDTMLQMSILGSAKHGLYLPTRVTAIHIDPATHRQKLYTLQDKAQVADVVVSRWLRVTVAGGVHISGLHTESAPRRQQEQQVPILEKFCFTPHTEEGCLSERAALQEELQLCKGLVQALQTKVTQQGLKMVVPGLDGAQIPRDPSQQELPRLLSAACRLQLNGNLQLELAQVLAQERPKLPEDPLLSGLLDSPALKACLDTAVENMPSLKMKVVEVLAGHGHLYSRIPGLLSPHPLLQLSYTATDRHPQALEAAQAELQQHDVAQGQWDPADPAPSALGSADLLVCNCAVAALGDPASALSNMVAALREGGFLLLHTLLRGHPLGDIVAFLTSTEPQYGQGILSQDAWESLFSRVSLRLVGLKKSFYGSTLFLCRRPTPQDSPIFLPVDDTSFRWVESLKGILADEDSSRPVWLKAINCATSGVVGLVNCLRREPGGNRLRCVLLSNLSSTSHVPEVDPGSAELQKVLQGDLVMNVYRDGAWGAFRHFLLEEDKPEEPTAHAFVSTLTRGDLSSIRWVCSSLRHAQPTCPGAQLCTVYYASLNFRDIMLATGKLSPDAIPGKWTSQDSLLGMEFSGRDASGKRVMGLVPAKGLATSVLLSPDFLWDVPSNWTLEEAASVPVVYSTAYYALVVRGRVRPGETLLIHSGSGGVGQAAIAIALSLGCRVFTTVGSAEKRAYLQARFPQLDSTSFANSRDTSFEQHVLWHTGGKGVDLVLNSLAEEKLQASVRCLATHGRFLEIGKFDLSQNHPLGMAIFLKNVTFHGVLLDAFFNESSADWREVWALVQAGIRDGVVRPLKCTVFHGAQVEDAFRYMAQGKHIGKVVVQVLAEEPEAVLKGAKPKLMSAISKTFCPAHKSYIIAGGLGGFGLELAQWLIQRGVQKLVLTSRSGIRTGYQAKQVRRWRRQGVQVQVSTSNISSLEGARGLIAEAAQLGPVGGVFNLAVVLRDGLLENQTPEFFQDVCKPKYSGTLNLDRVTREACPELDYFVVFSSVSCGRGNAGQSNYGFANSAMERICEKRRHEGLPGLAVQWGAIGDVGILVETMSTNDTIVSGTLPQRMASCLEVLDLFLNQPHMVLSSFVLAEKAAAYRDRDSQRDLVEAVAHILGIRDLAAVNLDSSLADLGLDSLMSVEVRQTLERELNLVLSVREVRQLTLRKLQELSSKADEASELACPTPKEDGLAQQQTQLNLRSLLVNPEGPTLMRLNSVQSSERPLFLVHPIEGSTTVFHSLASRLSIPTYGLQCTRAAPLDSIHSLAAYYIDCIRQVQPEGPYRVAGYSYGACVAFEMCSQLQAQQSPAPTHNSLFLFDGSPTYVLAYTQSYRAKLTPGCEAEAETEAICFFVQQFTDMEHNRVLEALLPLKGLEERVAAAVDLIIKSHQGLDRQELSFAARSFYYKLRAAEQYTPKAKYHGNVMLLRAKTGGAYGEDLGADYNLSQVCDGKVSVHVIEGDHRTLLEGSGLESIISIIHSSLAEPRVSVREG

[21] = fluconazole-exposed Candida albicans growth modulators – fluorescence, retest, confirmation (AID 2467); type: functional, cell-based
[22] = NIH-3T3 fibroblast cytotoxicity, dose response, cytotoxicity control, cell-based, fluorescence, Alamar Blue, secondary assay (AID 2327); type: functional;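 also: NIH-3T3 mouse fibroblasts cultured with fluconazole at 8 µg/mL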

SMILES: Cc1cc(C(c2ccc(O)cc2)c2cc(C)c(O)cc2C)c(C)cc1O
- EC50 [1]: 100 µM (active)
- AC50 [2]: 4.7 µM (active)
- CC50 [3]: 20 µM (active)

SMILES: Cc1c(C(=O)NCc2ccoc2)oc2ccc3c(c12)C(=O)CC(C)(C)O3
- EC50 [4]: 33.7 µM (active)
- EC50 [5]: > 120 µM (not active)

SMILES: COCCCNC(=O)Cn1c(=O)n(CCCCCC(=O)Nc2ccccc2)c(=O)c2sccc21
- EC50 [6]: > 112 µM (not active)
- EC50 [7]: > 112 µM (not active)

SMILES: Cc1ccc(C)c(C2NC(=O)c3ccccc3N2)c1 (stereo not drawn)
- EC50 [8]: 18.2 µM (active)
- EC50 [9]: 9.8 µM (inconclusive)
- EC50 [10]: 19.3 µM (inconclusive)
- EC50 [11]: 93.9 µM (active)

SMILES: COC(=O)c1cc2n(n1)CCN(Cc1ccc(F)cc1)C2=O
- EC50 [6]: > 112 µM (not active)
- EC50 [7]: > 112 µM (not active)

SMILES: CCOC(=O)C1=C(CNCCc2ccc(Cl)cc2)NC(=O)NC1c1ccc2c(c1)OCO2 (stereo not drawn)
- EC50 [12]: > 60 µM (not active)
- EC50 [13]: 13.3 µM (active)
- IC50 [14]: > 50 µM (not active)

SMILES: N#Cc1ccsc1NC(=O)CCc1ccccc1
- EC50 [8]: 18.1 µM (active)
- EC50 [9]: 15.7 µM (active)
- EC50 [10]: 19.3 µM (active)
- EC50 [11]: 34.1 µM (active)

SMILES: CCCc1nn(C)c2c1C(c1cccnc1)C(C#N)=C(N)O2 (stereo not drawn)
- EC50 [1]: 3.83 µM (active)
- AC50 [2]: 6.1 µM (active)

SMILES: N#CC1=C(N)Oc2[nH]nc(-c3cccs3)c2C1c1ccsc1 (stereo not drawn)
- EC50 [1]: 0.672 µM (active)
- AC50 [2]: 2.2 µM (active)

SMILES: CCCCOc1ccccc1NC(=O)Cn1c(-c2nonc2N)nc2ccccc21
- EC50 [15]: 8.28 µM (active)
- EC50 [8]: 3.73 µM (inconclusive)
- EC50 [16]: 0.254 µM (active)
- EC50 [9]: 3.38 µM (active)
- EC50 [10]: 4.23 µM (active)
- EC50 [17]: 0.163 µM (active)
- EC50 [18]: 7.21 µM (inconclusive)
- EC50 [19]: 2.49 µM (active)
- EC50 [11]: 7.06 µM (active)

SMILES: NC(=O)N/N=C/c1cn(-c2ccccc2)nc1-c1cccs1
- EC50 [8]: > 150 µM (not active)
- EC50 [9]: 19.4 µM (active)
- EC50 [10]: 36 µM (active)
- EC50 [11]: > 150 µM (not active)

SMILES: CC1N(O)C(c2ccc(Cl)cc2Cl)N(O)C1(C)C (stereo not drawn)
- EC50 [6]: > 112 µM (not active)
- EC50 [7]: > 112 µM (not active)

SMILES: CC(C)(C)NC(=O)c1cc(C(C)(C)C)c(O)c(C(C)(C)C)c1
- IC50 [14]: 3.38 µM (not active)

SMILES: O=C(Oc1ccc(Br)cc1)C1CC(=O)N(c2ccc(F)cc2)C1 (stereo not drawn)
- EC50 [1]: 11.8 µM (active)
- AC50 [2]: 7.12 µM (active)

SMILES: CC(=O)Nc1cccc(NC(=O)C(=O)Nc2ccc3c(c2)N(C(=O)C2CC2)CCC3)c1
- EC50 [6]: > 112 µM (not active)
- EC50 [7]: 31 µM (active)

SMILES: CC(=O)c1ccc(N=C(S)N(Cc2ccccc2)C(C)C2CC2)cc1 (stereo not drawn)
- IC50 [14]: 23.9 µM (not active)

SMILES: Cn1c(NC(=O)Cc2cccs2)cc(=O)n(C)c1=O
- EC50 [6]: > 112 µM (not active)
- EC50 [7]: > 112 µM (not active)

SMILES: O=C(CN1C(=O)c2cccc([N+](=O)[O-])c2C1=O)N1CCc2ccccc2C1
- IC50 [20]: 9.41 µM (active)

SMILES: CC(Sc1ccccc1)C(=O)Nc1ccccc1C(=O)N1CCOCC1 (stereo not drawn)
- EC50 [6]: > 112 µM (not active)
- EC50 [7]: > 112 µM (not active)

SMILES: COc1cc2c(cc1OC)-c1cc(Nc3ccc(C)cc3)nc(=O)n1CC2
- EC50 [6]: 3.46 µM (active)
- EC50 [7]: > 112 µM (not active)

SMILES: COc1ccc(C(=O)Nc2cccc(C)c2)cc1
- EC50 [6]: 7.08 µM (active)
- EC50 [7]: 16.1 µM (active)

SMILES: CCNS(=O)(=O)c1ccc(NC(=O)c2cccnc2)cc1
- EC50 [21]: > 38 µM (not active)
- EC50 [6]: > 112 µM (not active)
- EC50 [7]: > 112 µM (not active)
- EC50 [22]: > 160 µM (inactive)

SMILES: COC(=O)c1ccccc1NC(=S)NC(=O)COc1ccccc1
- IC50 [14]: 6.37 µM (not active)

SMILES: N#C/C(=C\c1cccc(NC(=O)c2ccccc2Cl)c1)C(=O)NCCc1ccccc1
- EC50 [1]: 11.2 µM (active)
- EC50 [16]: 14.4 µM (active)
- EC50 [17]: 15.1 µM (active)
- AC50 [2]: 8.73 µM (active)
- CC50 [3]: 15.6 µM (active)

SMILES: c1ccc(CCn2nnnc2CN2CCN(C3CCCC3)CC2)cc1
- IC50 [14]: > 50 µM (not active)

SMILES: CC(C)CC(C(=O)OCC(=O)c1c(N)n(C)c(=O)n(C)c1=O)N1C(=O)C2CC=CCC2C1=O (stereo not drawn)
- IC50 [14]: 12.9 µM (not active)

SMILES: COc1ccc(/C=N/Nc2nn3cnnc3c3ccccc23)cc1
- IC50 [14]: 5.99 µM (not active)

SMILES: CN1CCN(C(=O)/C=C/c2ccc([N+](=O)[O-])o2)CC1
- EC50 [8]: > 150 µM (not active)
- EC50 [9]: 44.6 µM (active)
- EC50 [10]: > 150 µM (not active)
- EC50 [11]: > 150 µM (not active)

SMILES: C/C(CC(=O)N1CCN(C=O)CC1)=N\NC(=O)c1cccc([N+](=O)[O-])c1
- EC50 [1]: 1.99 µM (active)
- AC50 [2]: 24.7 µM (active)
